Reference: paper PMC7816587 (Food and Chemical Toxicology, 2021)

Assay: Pharmacokinetic interactions between QPD and lopinavir in rats
Type: in vivo
Conditions: male, Sprague-Dawley, rat, plasma, po, 160 mg/kg

In the case of `Cc1cccc(C)c1OCC(=O)N[C@@H](Cc1ccccc1)[C@@H](O)C[C@H](Cc1ccccc1)NC(=O)[C@H](C(C)C)N1CCCNC1=O` [lopinavir], the Tmax is reported as 8 h, the AUC(0-inf) (AUC(0-inf) of lopinavir, rats, water + lopinavir 160 mg/kg i.g. (control group)) is reported as 6090 ng·h/mL and the half-life (t1/2 of lopinavir, rats, water + lopinavir 160 mg/kg i.g. (control group)) is reported as 1.9 h.
